Drawing on patent publication US20100272680A1, “Piperidinyl Cyclic Amido Antiviral Agents” (priority 2009, published 2010), this text covers EC50 for 9 molecules.

What all share (type): cell-based
The test system of one test is HCV replicon. Put plainly: Replicon assay (Table 2, genotype not stated). To be noted: Hepatitis C virus, Table 2, first measurement, luciferase activity after 48 hours. As to the method: Compounds were assayed for activity against HCV using the genotype 1a and 1b subgenomic replicon model systems. Stable cell lines bearing the genotype 1a and 1b replicons were used for screening of compounds. Both replicons are bicistonic and contain the firefly luciferase gene. The ET cell line is stably transfected with RNA transcripts harboring a I389luc-ubi-neo/NS3-3′/ET replicon with firefly luciferase-ubiquitin-neomycin phosphotransferase fusion protein and EMCV-IRES driven NS3-5B polyprotein containing the cell culture adaptive mutations (E1202G; T12801; K1846T) (Krieger at al, 2001 and unpublished). The genotype 1a replicon is a stable cell line licensed from Apath LLC, modified to contain the firefly luciferase gene. The cells were grown in DMEM, supplemented with 10% fetal calf serum, 2 mM Glutamine, Penicillin (100 IU/mL)/Streptomycin (100 μg/mL), 1× nonessential amino acids, and 250-500 μg/mL G418 (“Geneticin”). They were all available through Life Technologies (Bethesda, Md.). The cells were plated at 0.5×10^4 cells/well in 384 well plates containing compounds. The final concentration of compounds ranged between 0.03 μM to 50 μm and the final DMSO concentration of 0.5-1%.
Luciferase activity was measured 48 hours later by adding a Steady glo (Promega, Madison, Wis.). Percent inhibition of replication data was plotted relative to no compound control. Under the same condition, cytotoxicity of the compounds was determined using cell titer glo (Promega, Madison, Wis). IC50s were determined from a 10 point dose response curve using 3-4-fold serial dilution for each compound, which spans a concentration range >1000 fold. BioAssay determines the level of inhibition for each compound by normalizing cross-talk corrected plate values against the negative […] controls to determine Percent Inhibition:
These normalized values are exported to EC50 where they are plotted against the molar compound concentrations using the standard four parameter logistic equation: […]
Some EC50 measurements were repeated a second time and for both 1A and 1B genotypes after those reported in Table 2 for compounds 101-108 and the repeated data was reported in Table 3.

The subject of another test is HCV Genotype 1A Replicon. Put plainly: Replicon assay, genotype 1a subgenomic replicon, luciferase readout. To be noted: Hepatitis C virus, 48 h, Table 3; luciferase activity after 48 hours. In a few lines: (§1)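 EC50 values came from four-parameter logistic fits of 10-point dose responses (3–4-fold steps, final 0.03–50 μM, 0.5–1% DMSO), normalized against no-compound and no-cell controls. Firefly luciferase was read 48 h after plating 0.5×10^4 replicon cells/well, 1b ET or 1a Apath-derived line.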
On the technique in general: In antiviral work, replicon cells carry a viral genome segment that copies itself.

A further test deals with HCV Genotype 1B Replicon. The experiment in a line: Replicon assay, genotype 1b subgenomic replicon (ET cell line), luciferase readout. To be noted: Hepatitis C virus, 48 h, Table 3; luciferase activity after 48 hours. In a few lines: as §1

`O=C(c1nc2c(C(F)(F)F)cc(-c3ccoc3)cn2c1Cl)N1CCC(N2CCCC2=O)CC1` [Compound 101, 1-[1-(3-Chloro-6-furan-3-yl-8-trifluoromethyl-imidazo[1,2-a]pyridine-2-carbonyl)-piperidin-4-yl]-pyrrolidin-2-one] came in with an EC50 in the test on HCV replicon of 57 nM.
In turn, `O=C(c1nc2c(C(F)(F)F)cc(-c3cn[nH]c3)cn2c1Cl)N1CCC(N2CCCC2=O)CC1` [Compound 102, 1-{1-[3-Chloro-6-(1H-pyrazol-4-yl)-8-trifluoromethyl-imidazo[1,2-a]pyridine-2-carbonyl]-piperidin-4-yl}-pyrrolidin-2-one] came in with an EC50 in the test with HCV replicon of 683 nM.
For the molecule `O=C(c1nc2c(C(F)(F)F)cc(-c3ccoc3)cn2c1Cl)N1CCC(N2CCOC2=O)CC1` [Compound 103, 3-[1-(3-Chloro-6-furan-3-yl-8-trifluoromethyl-imidazo[1,2-a]pyridine-2-carbonyl)-piperidin-4-yl]-oxazolidin-2-one], the EC50 with HCV replicon amounted to 26 nM; in the test with HCV Genotype 1A Replicon, 10 nM; in the test with HCV Genotype 1B Replicon, 20 nM.
Consider `O=C(c1nc2c(C(F)(F)F)cc(-c3ccccc3)cn2c1Cl)N1CCC(N2CCOC2=O)CC1` [Compound 104, 3-[1-(3-Chloro-6-phenyl-8-trifluoromethyl-imidazo[1,2-a]pyridine-2-carbonyl)-piperidin-4-yl]-oxazolidin-2-one], for which, in the test on HCV replicon, the EC50 is 283 nM.
Regarding `O=C(c1nc2c(C(F)(F)F)cc(Br)cn2c1Cl)N1CCC(N2CCOC2=O)CC1` [Compound 105, 3-[1-(6-Bromo-3-chloro-8-trifluoromethyl-imidazo[1,2-a]pyridine-2-carbonyl)-piperidin-4-yl]-oxazolidin-2-one], the EC50 with HCV replicon came out at 71 nM; with HCV Genotype 1A Replicon, 30 nM; in the test on HCV Genotype 1B Replicon, 40 nM.
Regarding `C=C(C)c1cc(C(F)(F)F)c2nc(C(=O)N3CCC(N4CCOC4=O)CC3)c(Cl)n2c1` [Compound 106, 3-[1-(3-Chloro-6-isopropenyl-8-trifluoromethyl-imidazo[1,2-a]pyridine-2-carbonyl)-piperidin-4-yl]-oxazolidin-2-one], the EC50 with HCV replicon is 5 nM; in the test on HCV Genotype 1A Replicon it was 10 nM; in the test with HCV Genotype 1B Replicon it was 20 nM.
In the test on HCV replicon, `O=C(c1nc2c(C(F)(F)F)cc(C3=CCCC3)cn2c1Cl)N1CCC(N2CCOC2=O)CC1` [Compound 107, 3-[1-(3-Chloro-6-cyclopent-1-enyl-8-trifluoromethyl-imidazo[1,2-a]pyridine-2-carbonyl)-piperidin-4-yl]-oxazolidin-2-one] showed an EC50 of 16 nM.
On to `O=C(c1nc2c(C(F)(F)F)cc(-c3cn[nH]c3)cn2c1Cl)N1CCC(N2CCOC2=O)CC1` [Compound 108, 3-{1-[3-Chloro-6-(1H-pyrazol-4-yl)-8-trifluoromethyl-imidazo [1,2-a]pyridine-2-carbonyl]-piperidin-4-yl}-oxazolidin-2-one], for which the EC50 in the test with HCV replicon came out at 213 nM; in the test on HCV Genotype 1A Replicon, 20 nM; in the test on HCV Genotype 1B Replicon, 130 nM.
With `N#Cc1cc(C(F)(F)F)c2nc(C(=O)N3CCC(N4CCOC4=O)CC3)c(Cl)n2c1` [Compound 239, 3-chloro-2-{[4-(2-oxo-1,3-oxazolidin-3-yl)-1-piperidinyl]carbonyl}-8-(trifluoromethyl)imidazo[1,2-a]pyridine-6-carbonitrile], the EC50 in the test on HCV Genotype 1A Replicon came out at 800 nM; in the test on HCV Genotype 1B Replicon it was 7940 nM.

The EC50 is the concentration needed to bring the measured effect to its halfway point.
